31 compounds from patent US9233107B2, “Compositions and methods for the treatment of progressive multifocal leukoencephalopathy (PML)” (Biogen MA Inc., priority 2007, dated 2016) can be followed below.

Data set [1] deals with JCV strain Mad1/SVEΔ. Kind of data set: microbe, parasite or virus in culture. The format is cell-based, JC polyomavirus (JCV). The conditions noted are these: for % Inhibition (total #JCV+) @10 uM: SV40 transformed glial cells, Mad-1/SVEΔ JCV; for % Inhibition (% JCV+) @10 uM: infection rate, JCV+ cells normalised to total cells. The procedure:
(§1) SV40 transformed glial cells were seeded in 10% FBS media. The cells were seeded at 2000 cells per well in 75 μl of media per well. On day 2, the media was removed and replaced by 35 μl of a 1× concentrated drug aliquot combined with a 100× diluted JCV Turbo aliquot in 35 μl of 2% FBS media (JCV Turbo is a hybrid Mad-1/SVEΔ virus constructed by insertion of the regulatory region of SV40 into the regulatory region of the Mad-1 strain of JCV (Mad-1/SVE), Vacante et al., Virology 1989, 170: 353-361). The cells were incubated for an hour, after which another 65 uL aliquot of 1× concentrated drug in 2% FBS was added. On day 5 the cells were stained with DAPI (for total cell number) and with a mouse monoclonal antibody against SV40 VP1, which cross reacts with the JCV VP1 protein. […] The information is tabulated as % inhibition (as measured by the number and percentage of JCV positive cells).
(§2) JCV Infectivity Assay: SVG-A cells were seeded at 2,000 cells/well/0.075 ml of culture media in 96 flat-bottom well plate (Corning, N.Y.). The next day compounds were prepared in assay medium (2% heat-inactivated fetal bovine serum, 4 mM L-glutamine, 1×MEM). A master viral plate was prepared by mixing equal volumes of [2×] compound and [2×] diluted virus for the final 1× concentration of the compound and the virus. The plate containing cells was gently inverted and shaken to remove media. From the master plate, 0.035 ml compound/virus was added to designated wells. The cells were incubated with the compound/virus mixture for 60 minutes in a humidified 37° C. CO2 incubator. At that time final concentration of the drug in media was added to designated wells to bring the final volume up to 0.1 ml/well. The plates were incubated for an additional three days, the cells were then washed once with 1×PBS, and fixed in 2% paraformaldehyde/1×PBS for 30 minutes at room temperature. The fixative was removed and the cells were solubilized with 0.5% Triton X100 in PBS for an additional 30 minutes. Infection by Mad-1/SVEΔ virus was visualized by staining with PAB597, a monoclonal antibody against the major capsid protein VP1, the cells were incubated with 0.05 ml of PAB597 (2 μg/ml in 1×PBS) for 60 minutes at 37° C. Following a wash step with 1×PBS, primary antibody was detected with an Alexa-Fluor 488-labeled goat anti-mouse secondary antibody at 1:100 dilution in 1×PBS, cells were counterstained with DAPI at 1 μg/ml (0.05 ml/well) for 30 minutes at 37° C. Cells were washed with 1×PBS and 0.1 ml 1×PBS was added to cells. Field images of each well were acquired and analyzed using the Cellomics ArrayScan (Thermo Scientific Inc, Waltham, Mass.) using the Target Activation software. […] The cells are seeded at 4,000 cells/well/0.075 ml of culture media in 96 flat-bottom well plate (Corning). The culture media is used for the infection. The length of the infection is six to ten days (instead of the three days for SVG-A cells).
Calculations: The rate of JCV infection was calculated by normalizing the number of JCV infected cells by the total number of nucleated cells as % JCV^+ cells=((total # VP1^+ cells)/(total # DAPI^+ cells))*100%. The % of viral inhibition by a compound was calculated using a JCV infection rate instead of using total number of JCV infected cells (e.g., VP1^+ cells).

Data set [2] concerns SVG-A cells. Kind of data set: Total cell number (DAPI+ events) / cytotoxicity in the JCV infectivity assay. The settings on record: for inhibition at 10 µM: Homo sapiens, SVG-A, read-out: % Inhibition total Cell Number @10 uM; for % Inhibition total Cell Number @10 uM: cytotoxicity, DAPI count. The procedure: as §1, §2
The primary assay employed an SVG-A cell line and JCV Mad1/SVEΔ viral strain.

[3] abbreviates: JC polyomavirus, Glial cell, read-out: % Inhibition (total #JCV+) @10 uM.
Where [4] appears, read: JC polyomavirus, SVG-A, read-out: % Inhibition (% JCV+) @10 uM.
Setting [5] is: anti-JCV, inhibition of % JCV infected cells by 50%, full dose response, read-out: IC50.

Like-named read-outs stand apart in the source and are kept apart here.

On to `CCCCOc1cc(CC2CNC(=O)N2)ccc1OC` (stereo not drawn) [4-(3-BUTOXY-4-METHOXYBENZYL)IMIDAZOLIDIN-2-ONE], for which the results for the inhibition at 10 µM in data set [1] (setting [3]), in data set [1] (setting [4]) and in data set [2] were 48%, 42% and 12%, respectively.

For the compound `C=C[C@@H]1C2=CCOC(=O)C2=CO[C@H]1O[C@@H]1O[C@H](CO)[C@@H](O)[C@H](O)[C@H]1O` [GENTIOPICROSIDE], the inhibition (in general, the change of the read-out against control, counted positive when it falls) at 10 µM is 32% in data set [1] (setting [3]), 22% in data set [1] (setting [4]) and 11% in data set [2].

For `COc1cc(C)c(C(=O)Oc2cc(C)c(C(=O)O)c(O)c2C)c(OC)c1C` [DIFFRACTIC ACID], in data set [1], the “% Inhibition (total #JCV+) @10 uM” value turned out to be 44% and the “% Inhibition (% JCV+) @10 uM” value is reported as 36%. Further, in data set [1] (setting [5]), the IC50 (as a rule, the point on the concentration scale where inhibition reaches its midpoint) worked out at 14.4 µM. In data set [2], the CC50 – broadly, the concentration that lowers cell viability or growth by half – was more than 40 µM and the “% Inhibition total Cell Number @10 uM” value is 13%.

In the case of `CC1=CCc2c(cc3oc(C)cc(=O)c3c2O)OC1` [PTAEROXYLIN], the inhibition at 10 µM is 32% in data set [1] (setting [3]), 22% in data set [1] (setting [4]) and 11% in data set [2].

Take `O=C(O)c1ccccc1Nc1cccc(C(F)(F)F)c1` [FLUFENAMIC ACID]: the inhibition at 10 µM was 37% in data set [1] (setting [3]), 26% in data set [1] (setting [4]) and 14% in data set [2].

As to `c1ccc2[nH]c(-c3cscn3)nc2c1` [THIABENDAZOLE], the inhibition at 10 µM is 19% in data set [1] (setting [3]), 22% in data set [1] (setting [4]) and -1% in data set [2].

In the case of `CC(=O)OCC(=O)[C@@]12OC3(CCCC3)O[C@@H]1C[C@H]1[C@@H]3CCC4=CC(=O)C=C[C@]4(C)[C@@]3(F)[C@@H](O)C[C@@]12C` [AMCINONIDE], the results for the inhibition at 10 µM in data set [1] (setting [3]), in data set [1] (setting [4]) and in data set [2] were 16%, 25% and -11%, respectively.

Turning to `CC(C)=CCc1c(O)cc2oc(C)cc(=O)c2c1O` [PEUCENIN], the results for the inhibition at 10 µM in data set [1] (setting [3]), in data set [1] (setting [4]) and in data set [2] were 21%, 27% and -7%, respectively.

On to `COc1ccc([C@@H](C)C(=O)c2ccc(O)cc2O)cc1` [(R)-ANGOLENSIN], for which, in data set [1], the “% Inhibition (total #JCV+) @10 uM” value is 18% and the “% Inhibition (% JCV+) @10 uM” value is recorded as 22%. In addition, the “% Inhibition total Cell Number @10 uM” value in data set [2] was −5%.

For the compound `CN1CCCN=C1/C=C/c1cccs1` [PYRANTEL PAMOATE], the inhibition at 10 µM in data set [1] (setting [3]) came to 48%; in data set [1] (setting [4]), 42%; in data set [2], 12%.

For DEHYDROABIETAMIDE, in data set [1], the “% Inhibition (total #JCV+) @10 uM” value is reported as 40% and the “% Inhibition (% JCV+) @10 uM” value stood at 33%. Further, the concentration for half-maximal inhibition (IC50) in data set [1] (setting [5]) turned out to be 13 µM. Also, in data set [2], the CC50 was more than 40 µM and the “% Inhibition total Cell Number @10 uM” value turned out to be 11%.

For the compound `O=S1OCC2C(CO1)C1(Cl)C(Cl)=C(Cl)C2(Cl)C1(Cl)Cl` (stereo not drawn) [ENDOSULFAN], the inhibition at 10 µM in data set [1] (setting [3]) was 54%; in data set [1] (setting [4]) it was 44%; in data set [2], 19%.

Turning to `C[C@H]1C[C@H]2[C@@H]3CCC4=CC(=O)C=C[C@]4(C)[C@@]3(F)[C@@H](O)C[C@]2(C)[C@@]1(O)C(=O)CO` [BETAMETHASONE], the figures for the inhibition at 10 µM in data set [1] (setting [3]), in data set [1] (setting [4]) and in data set [2] were 34%, 24% and 14%, respectively.

Regarding `COC(=O)c1c(C)c2c(c(C)c1O)OC(=O)c1c(C)c(Cl)c(O)c(Cl)c1O2` [LEOIDIN], the results for the inhibition at 10 µM in data set [1] (setting [3]), in data set [1] (setting [4]) and in data set [2] were 14%, 21% and -9%, respectively.

As to `COc1cc2c(cc1-c1coc3c4c(c(OC)cc3c1=O)OC(C)(C)C=C4)OCO2` [ICHTHYNONE], the inhibition at 10 µM in data set [1] (setting [3]) worked out at 34%; in data set [1] (setting [4]), 24%; in data set [2], 14%.

POLYMYXIN B SULFATE: in data set [1], the “% Inhibition (total #JCV+) @10 uM” value was found to be 36% and the “% Inhibition (% JCV+) @10 uM” value was 41%. Moreover, the “% Inhibition total Cell Number @10 uM” value in data set [2] is −8%.

As for `CCCCCCCCCCCCCCCC(=O)OC[C@@H](NC(=O)C(Cl)Cl)[C@H](O)c1ccc([N+](=O)[O-])cc1` [CHLORAMPHENICOL PALMITATE], the inhibition at 10 µM in data set [1] (setting [3]) is 20%; in data set [1] (setting [4]), 29%; in data set [2] it was -13%.

Take GINKGOLIC ACID: in data set [1], the “% Inhibition (total #JCV+) @10 uM” value is 33% and the “% Inhibition (% JCV+) @10 uM” value was determined as 39%. Moreover, the “% Inhibition total Cell Number @10 uM” value in data set [2] is −8%.

As to `Nc1ccn(C[C@@H](CO)OCP(=O)(O)O)c(=O)n1` [cidofovir], the “percent inhibition of infection rate (% JCV+ cells), in words” value in data set [1] (FIG. 3D, SVG-A cells) was “not significant”. Moreover, the “inhibition of total number of cells in culture, in words” value in data set [2] is “inhibited the total number of cells in culture to the same degree”.

For the compound `OCCN(CCO)c1nc(N2CCCCC2)c2nc(N(CCO)CCO)nc(N3CCCCC3)c2n1` [DIPYRIDAMOLE], the inhibition at 10 µM was 24% in data set [1] (setting [3]), 22% in data set [1] (setting [4]) and 3% in data set [2].

Consider `O=c1oc2ccccc2c(O)c1Cc1c(O)c2ccccc2oc1=O` [DICUMAROL], for which the inhibition at 10 µM stood at 36% in data set [1] (setting [3]), 35% in data set [1] (setting [4]) and 3% in data set [2].

Regarding `O=c1c2ccccc2oc2ccccc12` [XANTHONE], the inhibition at 10 µM worked out at 39% in data set [1] (setting [3]), 39% in data set [1] (setting [4]) and 1% in data set [2]. The same compound showed a half-maximal inhibitory concentration (IC50) in data set [1] (JC polyomavirus, SVG-A) of 16.8 µM.

For the compound `O=c1cc(-c2ccccc2)oc2cc(O)cc(O)c12` [CHRYSIN], the inhibition at 10 µM in data set [1] (setting [3]) is 18%; in data set [1] (setting [4]), 26%; in data set [2] it was -12%.

In the case of `COc1cc(/C=C/C(=O)N2CCC=CC2=O)cc(OC)c1OC` [PIPLARTINE], the inhibition at 10 µM in data set [1] (setting [3]) is 21%; in data set [1] (setting [4]), 27%; in data set [2], -7%.

For `COc1cc2c(cc1-c1cc3cc4ccoc4cc3oc1=O)OCO2` [PACHYRRHIZIN], in data set [1], the “% Inhibition (total #JCV+) @10 uM” value is 45% and the “% Inhibition (% JCV+) @10 uM” value turned out to be 34%. Also, the “% Inhibition total Cell Number @10 uM” value in data set [2] was 17%.

`COc1cc(OC)c(C(C)=O)c(OC)c1` [METHYLXANTHOXYLIN]: in data set [1], the “% Inhibition (total #JCV+) @10 uM” value was 33% and the “% Inhibition (% JCV+) @10 uM” value was 30%. Also, the “% Inhibition total Cell Number @10 uM” value in data set [2] is reported as 5%.

As to `COc1cc([C@@H]2c3cc4c(cc3[C@H](O)[C@H]3COC(=O)[C@@H]23)OCO4)cc(OC)c1OC` [PICROPODOPHYLLOTOXIN], the values for the inhibition at 10 µM in data set [1] (setting [3]), in data set [1] (setting [4]) and in data set [2] were 19%, 22% and -1%, respectively.

Regarding `COc1ccc2c(c1)c(CC(=O)OCC(=O)O)c(C)n2C(=O)c1ccc(Cl)cc1` [ACEMETACIN], the inhibition at 10 µM in data set [1] (setting [3]) is 32%; in data set [1] (setting [4]) it was 38%; in data set [2] it was -8%.

For `CCOc1nc2cccc(C(=O)OC(C)OC(=O)OC3CCCCC3)c2n1Cc1ccc(-c2ccccc2-c2nn[nH]n2)cc1` (stereo not drawn) [CANDESARTAN CILEXTIL], in data set [1], the “% Inhibition (total #JCV+) @10 uM” value is given as 54% and the “% Inhibition (% JCV+) @10 uM” value is given as 44%. Further, the “% Inhibition total Cell Number @10 uM” value in data set [2] is 19%.

Take `COc1ccc(C(=O)c2ccccc2O)c(O)c1` [DIOXYBENZONE, 2,2′-Dihydroxy-4-methoxybenzophenone]: the inhibition at 10 µM came to 55% in data set [1] (setting [3]), 49% in data set [1] (setting [4]) and 11% in data set [2].

Take `Nc1nc2ccc(OC(F)(F)F)cc2s1` [RILUZOLE]: the inhibition at 10 µM is 16% in data set [1] (setting [3]) and 26% in data set [1] (setting [4]).
